Where “and” joins values, the source holds several entries; their conditions need not be identical. Identical values can stand only once.
Assays:
[1] = system: 4T1; experiment: Alamar Blue cytotoxicity; format: cell-based, mouse; details: 4T1, 72 h
Method: (§1) The Alamar Blue assay was used to measure cell viability, as previously described. Adherent cells were seeded in 96-well plates at a density of 7 × 10^3 cells per well, and suspended cells were seeded at 3 × 10^4 cells per well. Drugs were added to each well after overnight incubation for adherent cells or immediately after seeding for suspension cells, and incubation continued for an additional 72 h. The positive control included doxorubicin (Laboratorio IMA S.A.I.C., Buenos Aires, Argentina). Four hours (for cell lines) or 24 h (for primary cultures) before the end of incubation, 20 μL of resazurin (30 μM) (Sigma‒Aldrich Co. St. Louis, MO, USA) was added to each well. The absorbance at 570 and 600 nm was measured using a SpectraMax 190 microplate reader (Molecular Devices, Sunnyvale, CA, USA).

[2] = system: B16-F10; experiment: Alamar Blue cytotoxicity; format: cell-based, mouse; details: B16-F10, 72 h
Method: as §1

[3] = system: A-375; experiment: Alamar Blue cytotoxicity; format: cell-based, human; details: A-375, 72 h
Method: as §1

[4] = system: A549; experiment: Alamar Blue cytotoxicity; format: cell-based, human; details: A549, 72 h
Method: as §1

[5] = system: CAL 27; experiment: Alamar Blue cytotoxicity; format: cell-based, human; details: CAL 27, 72 h
Method: as §1

[6] = system: DU 145; experiment: Alamar Blue cytotoxicity; format: cell-based, human; details: DU 145, 72 h
Method: as §1

[7] = system: HCT116; experiment: Alamar Blue cytotoxicity; format: cell-based, human; details: HCT116, 72 h
Method: as §1

[8] = system: HSC-3; experiment: Alamar Blue cytotoxicity; format: cell-based, human; details: HSC-3, 72 h
Method: as §1

[9] = system: HepG2; experiment: Alamar Blue cytotoxicity; format: cell-based, human; details: HepG2, 72 h
Method: as §1

[10] = system: Jurkat; experiment: Alamar Blue cytotoxicity; format: cell-based, human; details: Jurkat, 72 h
Method: as §1

[11] = system: K-562; experiment: Alamar Blue cytotoxicity; format: cell-based, human; details: K-562, 72 h
Method: as §1

[12] = system: KG-1a; experiment: Alamar Blue cytotoxicity; format: cell-based, human; details: KG-1a, 72 h
Method: as §1

[13] = system: MCF-7; experiment: Alamar Blue cytotoxicity; format: cell-based, human; details: MCF-7, 72 h
Method: as §1

[14] = system: MDA-MB-231; experiment: Alamar Blue cytotoxicity; format: cell-based, human; details: MDA-MB-231, 72 h
Method: as §1

[15] = system: NB4; experiment: Alamar Blue cytotoxicity; format: cell-based, human; details: NB4, 72 h
Method: as §1

[16] = system: OVCAR-3; experiment: Alamar Blue cytotoxicity; format: cell-based, human; details: OVCAR-3, 72 h
Method: as §1

[17] = system: PANC-1; experiment: Alamar Blue cytotoxicity; format: cell-based, human; details: PANC-1, 72 h
Method: as §1

[18] = system: SCC-25; experiment: Alamar Blue cytotoxicity; format: cell-based, human; details: SCC-25, 72 h
Method: as §1

[19] = system: SCC-9; experiment: Alamar Blue cytotoxicity; format: cell-based, human; details: SCC-9, 72 h
Method: as §1

[20] = system: SCC4; experiment: Alamar Blue cytotoxicity; format: cell-based, human; details: SCC4, 72 h
Method: as §1

[21] = system: THP-1; experiment: Alamar Blue cytotoxicity; format: cell-based, human; details: THP-1, 72 h
Method: as §1

[22] = system: U-87 MG; experiment: Alamar Blue cytotoxicity; format: cell-based, human; details: U-87 MG, 72 h
Method: as §1

[23] = system: HepG2 cells; experiment: Annexin V-FITC/PI apoptosis detection; format: cell-based, human; details: for apoptosis (annexin V-FITC+ cells): HepG2, 72 h, control 4.8%; for percentage of necrotic cells: HepG2, 24, 48, 72 h
Method: For apoptosis detection, cell viability was quantified using Annexin V-FITC/PI (FITC Annexin V Apoptosis Detection Kit I, BD Biosciences, San Jose, CA, USA) according to the manufacturer’s instructions. The cells were also stained with rhodamine 123 (5 μg/mL, Sigma Aldrich Co.) for 15 min at 37 °C in the dark to assess the mitochondrial transmembrane potential. After the cells were washed, they were incubated in saline for 30 min in the dark at 37 °C and analyzed by flow cytometry. For all flow cytometry analyses, cellular fluorescence was measured using a BD LSRFortessa cytometer, BD FACSDiva software (BD Biosciences) and FlowJo software 10 (FlowJo LLC; Ashland, OR, USA). A minimum of 10,000 events were obtained per sample for intracellular staining, and a minimum of 30,000 events per sample were acquired for cell surface protein staining. Doublets were removed using FSC-A vs FCS-H and SCC-A vs SCC-H. Cellular debris was excluded from the analysis.

| Compound | IC50 [1] [µM] | IC50 [2] [µM] | IC50 [3] [µM] | IC50 [4] [µM] | IC50 [5] [µM] | IC50 [6] [µM] | IC50 [7] [µM] | IC50 [8] [µM] | IC50 [9] [µM] | IC50 [10] [µM] | IC50 [11] [µM] | IC50 [12] [µM] | IC50 [13] [µM] | IC50 [14] [µM] | IC50 [15] [µM] | IC50 [16] | IC50 [17] [µM] | IC50 [18] [µM] | IC50 [19] [µM] | IC50 [20] [µM] | other results |
| --- | --- | --- | --- | --- | --- | --- | --- | --- | --- | --- | --- | --- | --- | --- | --- | --- | --- | --- | --- | --- | --- |
| F[P-](F)(F)(F)(F)F.O=c1cc[nH]c([S][Ru+])n1.c1ccc(-c2ccccn2)nc1.c1ccc(P(c2ccccc2)c2ccccc2)cc1.c1ccc(P(c2ccccc2)c2ccccc2)cc1 [Complex 1, trans-[Ru(2TU)(PPh3)2(bipy)]PF6] | 11.7 | 3.04 | 3.01 | 17.5 | 2.66 | 7.6 | 4.74 | 8.36 | 3.49 | 5.07 | 6.77 | 4.77 | 9.21 | 2.62 | 4.79 | 2.4 µM and 2.43 µM | 9.45 | 7.61 | 4.4 | 4.77 | IC50 [21]: 4.75 µM; IC50 [22]: 3.53 µM; apoptosis (annexin V-FITC+ cells) ([23]; 2 µM): 9.0%; apoptosis (annexin V-FITC+ cells) ([23]; 4 µM): 48.9%; apoptosis (annexin V-FITC+ cells) ([23]; 8 µM): 76.1%; percentage of necrotic cells [23]: no significant increase |
| Cc1cc(=O)nc([S][Ru+])[nH]1.F[P-](F)(F)(F)(F)F.c1ccc(-c2ccccn2)nc1.c1ccc(P(c2ccccc2)c2ccccc2)cc1.c1ccc(P(c2ccccc2)c2ccccc2)cc1 [Complex 2, trans-[Ru(6m2TU)(PPh3)2(bipy)]PF6] | 4.52 | 2.75 | 2 | 10.5 | 4.31 | 3.74 | 4.52 | 5.55 | 3.17 | 4.94 | 7.69 | 3.77 | 7.29 | 2.95 | 5.25 | 1.6 µM and 1.62 µM | 4.09 | 3.63 | 2.54 | 3.48 | IC50 [21]: 6.47 µM; IC50 [22]: 3.69 µM; apoptosis (annexin V-FITC+ cells) ([23]; 1.5 µM): 9.1%; apoptosis (annexin V-FITC+ cells) ([23]; 3 µM): 40.7%; apoptosis (annexin V-FITC+ cells) ([23]; 6 µM): 76.9%; percentage of necrotic cells [23]: no significant increase |
